Drawing on PubChem BioAssay AID1845196 (Molecular Pharmacology Branch, DTP, NCI, 2023), this text covers IC50 and viability, T/C for two compounds.

The term IC50 denotes the concentration at which inhibition is half-maximal. One may read the viability, T/C as the ratio of treated to control.

The test system of this assay is 292921-168-R tumor spheroid viability. In words: Anticancer human tumor 292921-168-R patient-derived pancreatic carcinoma cell line growth inhibition. The note with it: spheroids with HUVEC and MSC; for viability, T/C: stronger effect = lower value. From the text: Multicellular complex tumor spheroid response to DNA repair inhibitors in combination with DNA-damaging drugs
This study explores the anticancer activities of DNA-damaging drugs and inhibitors of DNA damage repair, both as single agents and in combinations. Complex tumor spheroids comprised of malignant cells, endothelial cells and mesenchymal stem cells served as an in vitro model for human solid tumors. This model system incorporates physiologically relevant features and patient-derived or established malignant cell lines with clinically relevant genetic alterations from many tumor types. Twenty-six patient-derived or established malignant cell lines were evaluated representing sarcoma, melanoma, small cell lung cancer (SCLC), non-small cell lung cancer (NSCLC), as well as bladder, ovarian and pancreatic cancers. The concentration ranges selected for each drug and investigational agent were based upon clinically achievable concentrations if the clinical Cmax of the agent was known.
Compounds. The drugs and compounds olaparib (NSC753686), talazoparib (NSC767125), berzosertib (NSC777718), elimusertib (NSC800525), nedisertib (NSC802822), VX-984 (NSC792969), AZD-1390 (NSC803789), temozolomide (NSC362856), topotecan (NSC609699), trabectedin (NSC813783), staurosporine (NSC755774), and gemcitabine (NSC613327) were obtained from the National Cancer Institute (NCI) Developmental Therapeutics Program Chemical Repository. The FDA-approved anticancer drug set is available from the Developmental Therapeutics Program at https://dtp.cancer.gov/organization/dscb/obtaining/available_plates.htm. […] The stock solutions were prepared in dimethyl sulfoxide (DMSO, Sigma-Aldrich, St. Louis, MO, cat. D2650) at 400-fold the tested concentration and stored at -70 degrees C. Prior to their use, the stock solutions were diluted in fresh medium and the final DMSO concentration in the assay was 0.25% (v/v). All drugs and investigational agents were tested over a range starting from a high concentration at or near the clinical Cmax and decreasing in half-log increments. If the clinical Cmax for an agent had not been determined, the highest concentration tested was 10 microM.
Cell Lines. The patient-derived cancer cell (PDC) lines: 156681-154-R-J1-PDC, 283228-195-R-J1-PDC, 287954-098-R-J1-PDC, 292921-168-R-J2-PDC, 349418-098-R-PDC, 425362-245-T-J1-PDC, 556581-035-R-J1-PDC, and BL0293-F563-PDC were received from the NCI Patient-Derived Models Repository (PDMR, https://pdmr.cancer.gov). The established cell lines HS-SY-2 (RRID:CVCL_8719), MPNST, and SYO-1 (RRID:CVCL_7146) were obtained from the Sloan Kettering Institute. The alveolar soft parts sarcoma cell line ASPS-1 (RRID:CVCL_S738) was established at the NCI and grown from internal seed stocks. The following established cell lines were purchased from the American Type Culture Collection (ATCC, Manassas, VA): G-401 (ATCC, cat. CRL-1441, RRID:CVCL_0270), SW982 (ATCC, cat. HTB-93, RRID:CVCL_1734), VA-ES-BJ (ATCC, cat. CRL-2138, RRID:CVCL_1785), NCI-H719 (ATCC, cat. CRL-5837, RRID:CVCL_1582), NCI-H196 (ATCC, cat. CRL-5823, RRID:CVCL_1509), NCI-H841 (ATCC, cat. CRL-5845, RRID:CVCL_1595), NCI-H1618 (ATCC, cat. CRL-5879, RRID:CVCL_1480), NCI-H1876 (ATCC, cat. CRL-5902, RRID:CVCL_1503), DMS 114 (ATCC, cat. CRL-2066; RRID:CVCL_1174), NCI-H211 (ATCC, cat. CRL-5824; RRID:CVCL_1529), and SW 1271 (ATCC, cat. CRL-2177, RRID:CVCL_1716). The small cell lung cancer cell line COR-L88 was purchased from Sigma-Aldrich (cat. 92031917-1VL, RRID:CVCL_1141). The non-small cell lung cancer cell lines NCI-H226 (RRID:CVCL_1544) and NCI-H322M (RRID:CVCL_1557) were established at the NCI and grown from internal seed stocks. Pooled donor human umbilical vein endothelial cells (HUVEC, Lonza, cat. CC-2519) and human mesenchymal stem cells (hMSC, Lonza, cat. PT-2501) were purchased from Lonza (Walkersville, MD).
Cell Culture. All cells were maintained in an incubator at 37 degrees C and 5% CO2 with 95% humidity. […]

Molecules are shown by their SMILES. Several values for one entry are separate records, joined by “and”; a condition that tells them apart may be missing. Equal values may be shown once.
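Also: spheroids exposed to compounds for 7 days.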

Take `O=C(c1cc(Cc2n[nH]c(=O)c3ccccc23)ccc1F)N1CCN(C(=O)C2CC2)CC1` + CC[C@@]1(O)C(=O)OCc2c1cc1n(c2=O)Cc2cc3c(CN(C)C)c(O)ccc3nc2-1: the 50% inhibitory concentration (IC50) was 5.58 µM (curve of first compound, second compound 0.003 µM); 3.25 µM (curve of first compound, second compound 0.00949 µM); < 0.0949 µM (curve of first compound, second compound 0.03 µM); < 0.0949 µM (curve of first compound, second compound 0.0949 µM); < 0.0949 µM (curve of first compound, second compound 0.3 µM). In addition, the viability, T/C is 85.8% (second compound 0.003 µM, first compound 0.0949 µM); 84.9% (second compound 0.003 µM, first compound 0.3 µM); 83.2% (second compound 0.003 µM, first compound 0.949 µM); 71.3% (second compound 0.003 µM, first compound 3 µM); 31.7% (second compound 0.003 µM, first compound 9.49 µM); 25.6% (second compound 0.003 µM, first compound 30 µM). Also, the viability, T/C is 58.6% (second compound 0.00949 µM, first compound 0.0949 µM); 55% (second compound 0.00949 µM, first compound 0.3 µM); 58.4% (second compound 0.00949 µM, first compound 0.949 µM); 51.2% (second compound 0.00949 µM, first compound 3 µM); 31.1% (second compound 0.00949 µM, first compound 9.49 µM); 23.9% (second compound 0.00949 µM, first compound 30 µM). The viability, T/C was 22.6% (second compound 0.03 µM, first compound 0.0949 µM); 22.7% (second compound 0.03 µM, first compound 0.3 µM); 20.4% (second compound 0.03 µM, first compound 0.949 µM); 19.9% (second compound 0.03 µM, first compound 3 µM); 18.1% (second compound 0.03 µM, first compound 9.49 µM); 18.6% (second compound 0.03 µM, first compound 30 µM). Moreover, the viability, T/C (second compound 0.0949 µM, first compound 0.0949 µM) is 10.1%; the viability, T/C (second compound 0.0949 µM, first compound 0.3 µM) is 11.3%; the viability, T/C (second compound 0.0949 µM, first compound 0.949 µM) was 11.2%; the viability, T/C (second compound 0.0949 µM, first compound 3 µM) is 10%; the viability, T/C (second compound 0.0949 µM, first compound 9.49 µM) is 8.85%; the viability, T/C (second compound 0.0949 µM, first compound 30 µM) is 10.6%. The viability, T/C is 4.24% (second compound 0.3 µM, first compound 0.0949 µM); 4.06% (second compound 0.3 µM, first compound 0.3 µM); 4.61% (second compound 0.3 µM, first compound 0.949 µM); 4.65% (second compound 0.3 µM, first compound 3 µM); 3.41% (second compound 0.3 µM, first compound 9.49 µM); 3.89% (second compound 0.3 µM, first compound 30 µM).
Regarding `CC(C)n1c(=O)n(C)c2cnc3cc(F)c(-c4ccc(OCCCN5CCCCC5)nc4)cc3c21`, the viability, T/C was 93.7% and 95.7% and 101% (compound 0.0316 µM); 92.2% and 101% and 92.6% (compound 0.1 µM); 92.8% and 93.5% and 87.8% (compound 0.316 µM); 92.4% and 91.1% and 84% (compound 1 µM); 70.3% and 70.5% and 69.1% (compound 3.16 µM); 29.2% and 26.8% and 32.8% (compound 10 µM). Besides, under “curve of compound”, the IC50 was 5.58 µM and 5.44 µM and 5.67 µM.
